The values that follow come from US11654178B2, “Cyclic prosaposin peptides and uses thereof” (CHILDREN'S MEDICAL CENTER CORPORATION, priority 2014, dated 2023).

One data set has as its system thrombospondin-1 (Tsp-1). Nature of the data set: Tsp-1 activation in cultured cells by Western blot. Particulars: cyclic peptides, 4 micrograms/mL or 10 micrograms/mL, Western blot, FIG. 2. Type of data set: cell-based. Here is the method:
Cells were cultured and contacted with 4 micrograms/mL or 10 micrograms/mL of each peptide and the level of thrombospondin-1 (Tsp-1) activation was measured by Western blot. Tsp-1 has been previously shown to be activated by Saposin A protein.
In general terms: Immunoblotting shows a protein as a band on a membrane.

For the next data set, the system named is pancreatic cancer. Nature of the data set: Anti-tumor activity against pancreatic cancer (FIGS. 19 and 20). In kind it is in vivo.
For data set [1] the following is noted: mouse, in vivo.
A further data set deals with DF14 cells. Nature of the data set: DF14 PDX model of metastatic ovarian cancer, cyclic peptide for 10 days. In kind it is in vivo, mice. Here is the method: Based on these findings the efficacy of the cyclic peptide using the DF14 model was tested. In order to better study the effects of the peptide on the metastatic lesions mice were injected with 1×10^7 cells and allowed the luciferase signal to reach 9×10^9 RLU. The mice were treated with the cyclic peptide for only 10 days to ensure that there would be sufficient tumor tissue to analyze. […] The liver, spleen and omentum were analyzed of both the peptide and control treated mice by H&E, and IHC for Tsp-1, Gil and TUNEL. The metastatic lesions in the control treated mice were, on average, 2.3-fold larger than those in the peptide treated mice (FIG. 14E). […] Moreover, all of the lesions in the peptide treated mice contained a significant percentage of TUNEL positive cells, with an average of 40% TUNEL positive cells/lesion (FIGS. 14H and 14I). Conversely, control treated tumors contained, on average, only 1.4% TUNEL positive cells/lesion (FIGS. 14H and 14I).

Data set [2] can be described thus: Stability in human plasma at 37° C., read out as Tsp-1 stimulation in WI-38 fibroblasts (ELISA). Type of data set: in vitro ADME. The following applies: 24 hours. Here is the method:
The cyclic peptide DWLPK (SEQ ID NO: 1) was also tested for stability in human plasma compared to the linear peptide dWIP (SEQ ID NO: 5). Each peptide was incubated in human plasma at 37 degrees Celsius, for 2, 4, 8, or 24 hours.
Cyclization also has the effect of increasing the stability of peptides by forcing them into a conformation that is not recognized by most naturally occurring proteases (9, 10, 14-18). The stability of the cyclic peptide to the linear d-amino acid peptide in human plasma was compared.
On the technique in general: ELISA stands for enzyme-linked immunosorbent assay.

Data set [3] can be described thus: Activity of cyclic versus linear peptide (FIG. 18).
Data set [4] relates to patient-derived ovarian cancer cells expressing luciferase. Nature of the data set: Mouse model of ovarian cancer, luciferase tumor burden and histology. Type of data set: in vivo, mice. The following applies: 10 mg/kg for 10 days. The protocol: Next the cyclic peptide DWLPK (SEQ ID NO: 1) was tested in a mouse model of ovarian cancer. For the ovarian cancer mouse model, 1 million patient-derived ovarian cancer cells expressing luciferase were injected intraperitoneally into mice. The tumor burden was measured in vivo using luciferase. Treatment with the cyclic peptide began after 40 days and was administered for 10 days at 10 mg/kg. After 10 days of treatment, the mice were euthanized and the tumor was analyzed histologically.

A further data set has as its system Tsp-1. Put plainly: Tsp-1 stimulation in macrophages in mice. Type of data set: in vivo. Particulars: FIG. 7, F4/80 macrophages.
The subject of data set [5] is thrombospondin-1 (Tsp-1) in WI-38 lung fibroblasts. Put plainly: Stimulation of Tsp-1 in WI-38 lung fibroblasts (western blot). In kind it is cell-based. An excerpt: Identification of both a 4- and 5-amino acid peptide derived from the saposin A domain of Psap that was able to inhibit both a tail vein model of Lewis Lung Carcinoma metastasis and in an adjuvant model of breast cancer metastasis when administered systemically was previously described (3). The therapeutic efficacy of peptides is often limited by their stability, or resistance to degradation by proteases. […] The stability of the 4-amino acid Psap peptide by incorporating d-amino acids at different moieties was investigated. Two peptides with d-amino acids incorporated, in combination, at the first (aspartate) and third (leucine) or the second (tryptophan) and fourth (proline) residues were synthesized. The activity of these peptides along with the native 1-amino acid peptide in vitro by measuring their ability to stimulate thrombospondin-1 (Tsp-1) in WI-38 lung fibroblasts was tested.
While the results of the peptide treatment of the PDX model of ovarian cancer were very promising it was postulated that the stability and activity of the peptide could be increased even more. The peptide derived from Psap was located in a region of the protein that contained a 13-amino acid loop between two helices that was stabilized by a disulfide bond (3). As such a 5-amino acid peptide that was cyclized via backbone (N—C) cyclization was synthesized (FIG. 14A, cyclic DWLPK (SEQ ID NO: 1)). […]

The test system of data set [6] is DSS-induced model of Crohn's Disease. Nature of the data set: Dextran Sodium Sulfate (DSS)-induced model of Crohn's Disease. In kind it is in vivo, mice. The protocol: A model of Crohn's disease was used to test the efficacy of the cyclic peptide DWLPK (SEQ ID NO: 1) for treating Crohn's disease. The cyclic peptide was tested in a Dextran Sodium Sulfate (DSS)-induced model of Crohn's Disease where DSS was given to the mice in their drinking water (3.5% weight:volume) for 7 days. In one group the mice were treated concurrently with the cyclic peptide and DSS, while the other group was treated with DSS alone.

Where a SMILES comes first, the peptide text is derived from it.

In the case of `CC(C)C[C@@H]1NC(=O)[C@H](Cc2c[nH]c3ccccc23)NC(=O)[C@H](CC(=O)O)NC(=O)[C@H](CCCCN)NC(=O)[C@@H]2CCCN2C1=O` [cyclic DWLPK] (cyclo(DWLPK)), the “effectiveness at increasing the level of Tsp-1” value in the data set on thrombospondin-1 (Tsp-1) is reported as “most effective”. Besides, in the data set on pancreatic cancer (FIG. 19), the “anti-tumor activity against pancreatic cancer” value is recorded as “significant anti-tumor activity”. Further, in the data set on pancreatic cancer (FIG. 20), the “effect on metastasis of pancreatic cancer” value is “inhibits metastasis” and the “effect on metastatic pancreatic cancer” value is reported as “regresses metastatic pancreatic cancer”. Moreover, the “toxicity to the liver or spleen by histology” value in [1] was “did not cause any toxicity”. Besides, the “size of metastatic lesions in control treated mice relative to peptide treated mice” value in the data set on DF14 cells (10 days of treatment, on average) is recorded as 2.3 fold. Besides, the “TUNEL positive cells/lesion, average” value in the data set with DF14 cells (10 days of treatment, control 1.4%) worked out at 40%. In the data set on DF14 cells (after 10 days of treatment, start at 9×10^9 RLU, 10 mg/kg QD), the “average luciferase signal after treatment” value is listed as 4×10^8 RLU. Besides, the “Tsp-1 staining of treated tumors (IHC)” value with DF14 cells (all of the peptide treated tumors) is given as “stained positive for Tsp-1”. In addition, the “ability to activate Tsp-1 after incubation in human plasma” value in data set [2] (37 degrees Celsius, FIG. 3) is listed as “retained the ability to activate Tsp-1”. In addition, in [2] (37° C., ELISA), the “Tsp-1 stimulating activity retained after incubation in human plasma” value is “greater than 70%”. For the same compound, in data set [3], the “activity relative to the linear peptide” value was “approximately 2 fold”. In data set [4], the “size of treated tumors relative to untreated tumors by histology” value is recorded as < 25%. The “Tsp-1 expression in treated tumors” value in data set [4] (histology) is listed as “expressed Tsp-1”. Besides, in [4] (starting after 40 days, FIG. 6), the “luciferase output (tumor burden)” value is “went down”. The “Tsp-1 in macrophages in mice” value in the data set on Tsp-1 is “stimulated Tsp-1 in macrophages”. Also, the “Tsp-1 stimulation in vitro relative to d-amino acid linear peptide” value in data set [5] came to 3 fold. Further, in data set [6] (DSS 3.5% in drinking water 7 days, peptide concurrently, FIG. 9), the “inflammation (MPO enzymatic activity)” value is listed as “significantly reduced inflammation”. The “body weight loss versus DSS only” value in data set [6] (FIG. 10) was “lost less weight”. Further, in data set [6] (FIG. 11), the “Tsp-1 stimulation in intestine” value is recorded as “stimulate Tsp-1” and the macrophage infiltration entry was “inhibit macrophage infiltration”.
